The test system of the experiment is KB. Put plainly: Cytotoxicity against human KB cells. Conditions: read-out: ED50 (the source's name). The experiment is classed as functional.

We go through 1 compound from ChEMBL document CHEMBL1151629, “Lariciresinol derivatives from Turrea nilotica and Monechma ciliatum” (1984).

Take `COc1cc(C[C@H]2CO[C@H](c3ccc(OC)c(OC)c3)[C@H]2CO)ccc1O`: the EC50 was > 10 µg/mL.
